The text below walks through data of patent publication US20180200339A1, “METHODS OF REDUCING CORNEAL ENDOTHELIAL CELL LOSS” (Massachusetts Eye and Ear Infirmary, priority 2013, published 2018).

The subject of one assay is cornea. The assay can be described thus: VIP treatment of mice after trigeminal axotomy: corneal thickness by AS-OCT. The assay is classed as in vivo, BALB/c mice. The following applies: daily intraperitoneal VIP 5 nM in 10 μL, day 14, AS-OCT, versus saline. The protocol: Six- to eight-week old male BALB/c mice (Charles River, Wilmington, Mass.) were used in these experiments. Trigeminal axotomy was performed by first anesthetizing the animals with a ketamine (100 mg/mL)/xylazine (20 mg/mL)/acepromazine (15 mg/mL) mixture. After anesthetization, small incision lateral canthotomy was performed, two tractional sutures were placed on the lid skin, and the conjunctival fornix were incised circumferentially around 90 degrees. The eye globe was rotated nasally by gently pushing the nasal fornix with blunt forceps, exposing the trigeminal nerve and minimizing intraoperative bleeding through mild elevation of the intraorbital pressure. The ophthalmic branches of the trigeminal nerve were cut at the posterior sclera close to the optic nerve with sharp forceps. After cutting the branches of the trigeminal nerve, the skin was sutured using 8-0 nylon. Tarsorrhaphy was performed to reduce the risk of infection and exposure keratitis in the mice. Finally, an antibiotic ointment (bacitracin-neomycin-polymyxin mixture) was applied to the sutured area and the treated eye in the mice. […]
Normal and post-operative cornea were examined using anterior segment optical coherence tomography (AS-OCT, RTVue, Optoview, Inc., Fremont, Calif.) at 7, 14 and 21 days after the surgical procedure. […] The corneal thickness was measured using built-in software. […]

The subject of assay [1] is corneal endothelial cells. The assay can be described thus: VIP treatment of mice after trigeminal axotomy: corneal endothelial cell density (immunofluorescence, ZO-1 staining). In kind it is in vivo, BALB/c mice. Conditions: daily intraperitoneal VIP 5 nM in 10 μL, day 14, versus saline. Here is the method:
Six- to eight-week old male BALB/c mice (Charles River, Wilmington, Mass.) were used in these experiments. Trigeminal axotomy was performed by first anesthetizing the animals with a ketamine (100 mg/mL)/xylazine (20 mg/mL)/acepromazine (15 mg/mL) mixture. After anesthetization, small incision lateral canthotomy was performed, two tractional sutures were placed on the lid skin, and the conjunctival fornix were incised circumferentially around 90 degrees. The eye globe was rotated nasally by gently pushing the nasal fornix with blunt forceps, exposing the trigeminal nerve and minimizing intraoperative bleeding through mild elevation of the intraorbital pressure. The ophthalmic branches of the trigeminal nerve were cut at the posterior sclera close to the optic nerve with sharp forceps. After cutting the branches of the trigeminal nerve, the skin was sutured using 8-0 nylon. Tarsorrhaphy was performed to reduce the risk of infection and exposure keratitis in the mice. Finally, an antibiotic ointment (bacitracin-neomycin-polymyxin mixture) was applied to the sutured area and the treated eye in the mice. Fluxinin (0.25 mg /kg body weight) was administered every 12 hours for 24 hours by subcutaneous injection. […]
Corneal endothelial cells were counted using cell counter plug-ins with ImageJ software (NIH, Bethesda, Md.). […] The results are expressed as mean±SEM, and considered significant if p<0.05.

Turning to vasoactive intestinal peptide [VIP], in the assay with cornea, the corneal thickness result is reported as “remained within the normal ranged”. Also, the “corneal endothelial cell density” value in assay [1] is on record as “didn't decrease”.
